The target in data set [1] is T1, Free fatty acid receptor 2 (Homo sapiens) (UniProt O15552).
T1 sequence (whole entry): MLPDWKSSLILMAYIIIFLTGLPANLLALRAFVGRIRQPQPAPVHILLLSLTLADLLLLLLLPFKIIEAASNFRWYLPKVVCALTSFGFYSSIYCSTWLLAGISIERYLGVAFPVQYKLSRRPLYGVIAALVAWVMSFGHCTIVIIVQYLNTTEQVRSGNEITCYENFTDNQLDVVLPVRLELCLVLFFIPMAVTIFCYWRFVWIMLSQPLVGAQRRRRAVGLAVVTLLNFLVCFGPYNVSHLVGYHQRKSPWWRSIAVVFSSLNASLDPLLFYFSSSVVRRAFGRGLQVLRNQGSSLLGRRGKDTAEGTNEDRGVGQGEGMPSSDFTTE
In words: (§1) Antagonist activity at human FFA2 expressed in Flp-In-T-REx-293 cells co-expressing eYFP assessed as inhibition of propionate-induced cAMP accumulation preincubated with compound for 20 mins followed by propionate addition and measured after 25 mins in the presence of forskolin by TR-FRET analysis. The following applies: time 45.0 min. The format is functional, cell-based. On the technique in general: cAMP levels reflect the balance of adenylyl cyclase and phosphodiesterase activity.

The target of data set [2] is T1, Free fatty acid receptor 2 (Homo sapiens). In words: (§2) Antagonist activity at human FFA2 expressed in Flp-In-T-REx-293 cells co-expressing eYFP assessed as inhibition of [35S]GTPgammaS incorporation preincubated for 15 mins followed by [35S]GTPgammaS addition and measured after 60 min by liquid scintillation spectroscopic analysis. The format is functional, cell-based. As to conditions: time 75.0 min. (In general: Binding of GTPγS marks nucleotide exchange on a G protein.)

Data set [3] has the same target. The experiment in a line: Potency index, ratio of CATPB pIC50 to test compound pIC50 for antagonist activity at human FFA2.
Data set [4] addresses T2, Free fatty acid receptor 2 (Homo sapiens, UniProt O15552).
T2 sequence (O15552 whole entry): T1 sequence (whole entry)
The experiment in a line: Inverse agonist activity at human GPR43 expressed in Glosensor cells assessed as increase in forskolin-induced cAMP level preincubated with compound for 5 mins followed by forskolin addition and measured after 15 mins by luminescence based analysis. The format is functional, cell-based.

A short description of data set [5]: Chemical stability of compound in PBS buffer at pH 7.4 measured after 10 days by HPLC analysis. Format: physicochemical. The following applies: time 10 day, read-out: Stability.
Data set [6] concerns the target T2, Free fatty acid receptor 2. The data set is described as §1. The format is functional, cell-based.
The target of data set [7] is T2, Free fatty acid receptor 2. The description is as §2. The format is functional, cell-based.
The subject of data set [8] is Neutrophil. The experiment in a line: Inhibition of propionate-induced cell migration in human peripheral neutrophil at 0.4 to 1 uM preincubated with compound for 30 mins followed by propionate addition and measured after 1 hrs by ATPlite luminescence assay. Format: functional, cell-based. As to conditions: dose 0.4-1 µM, time 90.0 min. Background: ATP-based viability assays read luminescence as a measure of living cells.

Data set [9] has as its system Neutrophil. The experiment in a line: Inhibition of propionate-induced respiratory burst in human peripheral neutrophil assessed as effect on luminol-induced chemiluminescence at 0.4 to 1 uM preincubated with compound for 30 mins followed by propionate addition and measured immediately by microplate reader based analysis. The format is functional, cell-based. As to conditions: dose 0.4-1 µM.

A short description of data set [10]: Inhibition of propionate-induced respiratory burst in human peripheral neutrophil assessed as effect on luminol-amplifies chemiluminescence by measuring fold change at 0.4 to 1 uM preincubated with compound for 30 mins followed by propionate addition and measured immediately by microplate reader based analysis relative to CATPB. The format is functional. The following applies: dose 0.4-1 µM, 0.5 h.

Data set [11] relates to Neutrophil. In words: Inhibition of fMLP-induced cell migration in human peripheral neutrophil at 10 uM. The format is functional, cell-based.
Data set [12] addresses T3, Free fatty acid receptor 3 (Homo sapiens) (UniProt O14843).
T3 sequence (whole entry): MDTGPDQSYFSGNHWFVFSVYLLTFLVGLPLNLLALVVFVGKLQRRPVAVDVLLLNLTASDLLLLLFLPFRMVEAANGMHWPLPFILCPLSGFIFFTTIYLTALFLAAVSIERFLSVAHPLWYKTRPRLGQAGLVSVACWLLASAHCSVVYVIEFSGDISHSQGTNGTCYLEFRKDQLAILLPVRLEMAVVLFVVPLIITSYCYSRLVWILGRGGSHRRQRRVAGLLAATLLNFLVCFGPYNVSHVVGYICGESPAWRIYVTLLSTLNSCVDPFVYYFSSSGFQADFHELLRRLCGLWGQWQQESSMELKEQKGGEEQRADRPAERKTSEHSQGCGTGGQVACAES
In words: Antagonist activity at human FFA3 expressed in Flp-In-T-REx-293 cells co-expressing eYFP assessed as inhibition of propionate-induced cAMP accumulation at 10 uM preincubated with compound for 20 mins followed by propionate addition and measured after 25 mins in the presence of forskolin by TR-FRET analysis. Format: functional, cell-based. The following applies: time 45.0 min.

In data set [13] the test system is Neutrophil. In words: Inhibition of fMLP-induced respiratory burst in human peripheral neutrophil at 10 uM. Format: functional, cell-based.

These results are taken from ChEMBL document CHEMBL5380873, “Discovery of Potent Tetrazole Free Fatty Acid Receptor 2 Antagonists” (J Med Chem, 2023).

Calls of active or inactive are those of the source. The calls are words filed in the database; no cut-off is given here.

Turning to `O=C(Cc1cnc[nH]1)N[C@@H](Cc1ccc(C(F)(F)F)cc1)Cc1nnn[nH]1`, the outcome in [1] and in data set [2] was inactive.

For the compound `Cc1cccc(CC(=O)N[C@@H](Cc2ccc(C(F)(F)F)cc2)Cc2nnn[nH]2)c1`, the Ratio pIC50 in data set [3] is greater than 10.

In general, IC50 refers to the midpoint of a concentration-inhibition curve. As for `CC1=C(C(=O)Nc2cc(C)cc(C)c2)C(c2ccc(N(C)C)cc2)NC(=O)N1` (stereo unspecified), the IC50 in data set [4] was roughly 10 µM.

For the compound `O=C(Cc1cncc(Br)c1)N[C@@H](Cc1ccc(C(F)(F)F)cc1)Cc1nnn[nH]1`, in data set [5], the remaining at 240 h was greater than 95%.

In general, pIC50 refers to the negative decadic logarithm of the IC50, by convention in mol/L. Consider `N#Cc1cccc(CC(=O)N[C@@H](Cc2ccc(C(F)(F)F)cc2)Cc2nnn[nH]2)c1`, for which the pIC50 in data set [6] and in [7] was greater than 5 in each case.

On to `COc1cccc(CC(=O)N[C@@H](Cc2ccc(C(F)(F)F)cc2)Cc2nnn[nH]2)c1`, for which the inhibition entry in the data set on Neutrophil [8] and with Neutrophil [9] was “Active” each time. Besides, the “fold change (FC)” value in [10] is on record as 8. For the same compound, the inhibition entry in the data set with Neutrophil [11] and in the data set with Neutrophil [13] was “inactive” in each case. In addition, the remaining at 240 h in data set [5] was greater than 95%. Moreover, in data set [12], the outcome was inactive.

Consider `O=C(Cc1cccc(-c2nnn[nH]2)c1)N[C@@H](Cc1ccc(C(F)(F)F)cc1)Cc1nnn[nH]1`, for which the result in data set [1] and in data set [2] was inactive.
